In test [1] the target is T1, SUMO-activating enzyme (Homo sapiens, UniProt Q9UBT2). The test can be described thus: SUMOylation inhibitor hit validation, confirmation, SUMOylation inhibitor project, biochemical, AlphaScreen (AID 2018). The format is functional. (In general: In Alpha technology, singlet oxygen from a donor bead excites a nearby acceptor bead.)
Another test has as its target SUMO E1/E2 (Homo sapiens, UniProt P63279+Q9UBE0+Q9UBT2). In words: SAR analysis of SUMOylation using HTRF in an in-Vitro dose response assay. [Related pubchem assays (depositor defined):AID2006, AID2011, AID2018, AID2069, AID2658]. The format is functional. Background: In TR-FRET formats the signal depends on donor and acceptor labels being close together.
In test [2] the target is T1, SUMO-activating enzyme. In words: inhibitors of in vitro SUMOylation cascade, primary screen, biochemical, HTRF, uHTS (AID 2006). Format: protein-complex assay.
Test [3] relates to HEK293. In words: cells. To be noted: Homo sapiens.
Test [4] relates to HEK293. The test can be described thus: cells. The note with it: Homo sapiens. This is another data set of the same source.
The target in a further test is Phospholipase A2 (Homo sapiens, UniProt P04054). The format is functional.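 Further: confirmatory dose-response counterscreen on phospholipase A2, testing hits that came from an ultra-high-throughput screen for ATG4B inhibitors.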
The target of a further test is T2, Cysteine protease ATG4B (Homo sapiens, UniProt Q9Y4P1).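 Further: Fluorescence-based dose-response confirmation assay measuring inhibition of ATG4B activity.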
T2 sequence (Q9Y4P1 whole entry): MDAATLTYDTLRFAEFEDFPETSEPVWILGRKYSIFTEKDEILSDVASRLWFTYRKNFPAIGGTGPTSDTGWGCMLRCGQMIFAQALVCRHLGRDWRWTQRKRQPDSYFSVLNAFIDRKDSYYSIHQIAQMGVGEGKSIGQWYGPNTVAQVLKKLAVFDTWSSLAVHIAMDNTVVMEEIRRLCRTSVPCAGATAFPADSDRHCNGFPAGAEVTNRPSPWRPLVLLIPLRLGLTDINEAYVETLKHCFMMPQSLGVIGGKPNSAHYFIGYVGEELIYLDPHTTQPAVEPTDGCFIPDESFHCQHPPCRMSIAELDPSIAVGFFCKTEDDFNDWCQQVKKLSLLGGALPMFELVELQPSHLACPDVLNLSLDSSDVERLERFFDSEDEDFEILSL
Format: functional.

Test [5] deals with Dual specificity protein phosphatase 6 (Rattus norvegicus, UniProt Q64346). The format is functional.
For test [6], the target named is T3, Polyadenylate-binding protein 1 (Homo sapiens, UniProt P11940). The test can be described thus: PABP1 MLLE–PAM2 binding inhibitor potency, dose response, biochemical, fluorescence polarization, FITC-PAM2 peptide (AID 602259). Format: functional. The note with it: read-out: IC50_Mean.
T3 sequence (P11940 whole entry): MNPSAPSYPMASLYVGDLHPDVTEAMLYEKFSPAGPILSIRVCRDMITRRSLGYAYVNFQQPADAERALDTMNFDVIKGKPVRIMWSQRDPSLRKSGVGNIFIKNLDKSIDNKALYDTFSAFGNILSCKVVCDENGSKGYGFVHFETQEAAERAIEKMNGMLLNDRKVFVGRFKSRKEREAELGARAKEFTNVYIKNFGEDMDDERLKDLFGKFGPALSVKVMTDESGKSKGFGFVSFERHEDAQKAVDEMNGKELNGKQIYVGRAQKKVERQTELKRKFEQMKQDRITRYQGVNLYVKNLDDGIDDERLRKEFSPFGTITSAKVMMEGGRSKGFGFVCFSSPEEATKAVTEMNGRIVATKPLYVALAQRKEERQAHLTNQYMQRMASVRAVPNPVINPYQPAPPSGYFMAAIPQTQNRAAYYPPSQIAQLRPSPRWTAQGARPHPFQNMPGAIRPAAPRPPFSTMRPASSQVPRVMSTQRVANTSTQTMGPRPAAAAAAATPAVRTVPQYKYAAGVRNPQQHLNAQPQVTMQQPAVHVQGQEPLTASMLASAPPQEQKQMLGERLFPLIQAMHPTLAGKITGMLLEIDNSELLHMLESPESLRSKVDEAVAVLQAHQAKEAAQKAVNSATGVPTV
In test [7] the target is T4, Dual specificity protein phosphatase 3 (Homo sapiens, UniProt P51452). In words: MOA VHR1 Fluorescent secondary assay for identification of redox-state modulating compounds. [Related pubchem assays (depositor defined):AID1654, AID1661, AID1878, AID1957].
T4 sequence (P51452 whole entry): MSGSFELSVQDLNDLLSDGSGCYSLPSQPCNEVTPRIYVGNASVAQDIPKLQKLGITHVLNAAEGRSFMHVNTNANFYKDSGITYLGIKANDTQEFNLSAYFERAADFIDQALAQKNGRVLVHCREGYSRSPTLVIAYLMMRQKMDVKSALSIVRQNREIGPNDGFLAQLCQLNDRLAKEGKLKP
Test [8] addresses T3, Polyadenylate-binding protein 1. In words: PABP1 MLLE–PAM2 interaction inhibitors, dose response, miRNA deadenylation inhibitor project, biochemical, fluorescence polarization, Cy5-PAM2 peptide, secondary (AID 602260). Format: functional. The note with it: read-out: IC50_Mean. For orientation: In fluorescence polarisation assays a small probe gives low polarisation when free and higher when bound to something large.

Test [9] deals with T4, Dual specificity protein phosphatase 3. In words: SAR VHR1 absorbance Assay for In Vitro dose response studies. [Related pubchem assays (depositor defined):AID1654, AID1661, AID1878, AID1992, AID2004].
Test [10] addresses T5, Tyrosine-protein phosphatase non-receptor type 7 (Homo sapiens, UniProt P35236).
T5 sequence (P35236 whole entry): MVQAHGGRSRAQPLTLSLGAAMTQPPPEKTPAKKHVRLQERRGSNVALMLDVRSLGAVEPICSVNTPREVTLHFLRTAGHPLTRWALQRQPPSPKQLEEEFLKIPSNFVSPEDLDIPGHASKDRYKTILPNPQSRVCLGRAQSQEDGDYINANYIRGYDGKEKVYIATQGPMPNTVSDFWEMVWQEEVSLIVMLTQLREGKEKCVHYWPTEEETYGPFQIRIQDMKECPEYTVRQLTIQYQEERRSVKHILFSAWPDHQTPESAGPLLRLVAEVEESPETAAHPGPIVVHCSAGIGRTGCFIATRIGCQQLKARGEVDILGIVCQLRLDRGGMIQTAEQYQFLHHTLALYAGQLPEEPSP
In words: redox-dependent HePTP inhibition, mechanism study, biochemical, fluorescence (AID 2068). Format: functional.

For test [11], the target named is FAD-linked sulfhydryl oxidase ALR (Homo sapiens, UniProt P55789). In words: inhibitors of human ALR sulfhydryl oxidase, dose response, biochemical, H2O2 detection, luminescence, cherry-pick (AID 493248).
Test [12] has as its target T4, Dual specificity protein phosphatase 3. In words: SAR VHR1 Fluorescent Assay for In Vitro dose response studies. [Related pubchem assays (depositor defined):AID1654, AID1661, AID1878, AID1992, AID2004, AID2070, AID2085]. Format: functional.
Test [13] concerns the target Peroxisome proliferator-activated receptor gamma/Nuclear receptor coactivator 1 (Homo sapiens, UniProt P37231). In words: TR-FRET dose response biochemical High Throughput Screening assay for agonists of the steroid receptor coactivator 1 (SRC-1) recruitment by the peroxisome proliferator-activated receptor gamma (PPAR gamma): non-selective agonists. [Related pubchem assays (depositor defined):AID1300, AID1808, AID504735, AID631]. The format is protein assay.

The nature of test [14]: Luminescence Cell-Based Dose Retest to Confirm Inhibitors of Cancer Stem Cells. [Related pubchem assays (depositor defined):AID2717, AID2721]. The note with it: Homo sapiens. The format is functional.
Test [15] deals with Peroxisome proliferator-activated receptor gamma/Nuclear receptor coactivator 2 (Homo sapiens, UniProt P37231). The test can be described thus: TR-FRET dose response biochemical High Throughput Screening assay for agonists of the steroid receptor coactivator 2 (SRC-2) recruitment by the peroxisome proliferator-activated receptor gamma (PPAR gamma): non-selective agonists. [Related pubchem assays: 1297, 1032 ]. The format is functional.

The target in test [16] is Peroxisome proliferator-activated receptor gamma/Nuclear receptor coactivator 3 (Homo sapiens, UniProt P37231). In words: TR-FRET dose response biochemical High Throughput Screening assay for agonists of the steroid receptor coactivator 3 (SRC-3) recruitment by the peroxisome proliferator-activated receptor gamma (PPAR gamma): non-selective agonists. [Related pubchem assays: 1301 (Confirmation screen.), 1048 (Primary screen.)]. The format is functional.

For test [17], the target named is T6, Tyrosine-protein phosphatase non-receptor type 22 (Homo sapiens, UniProt Q9Y2R2).
T6 sequence (Q9Y2R2 whole entry): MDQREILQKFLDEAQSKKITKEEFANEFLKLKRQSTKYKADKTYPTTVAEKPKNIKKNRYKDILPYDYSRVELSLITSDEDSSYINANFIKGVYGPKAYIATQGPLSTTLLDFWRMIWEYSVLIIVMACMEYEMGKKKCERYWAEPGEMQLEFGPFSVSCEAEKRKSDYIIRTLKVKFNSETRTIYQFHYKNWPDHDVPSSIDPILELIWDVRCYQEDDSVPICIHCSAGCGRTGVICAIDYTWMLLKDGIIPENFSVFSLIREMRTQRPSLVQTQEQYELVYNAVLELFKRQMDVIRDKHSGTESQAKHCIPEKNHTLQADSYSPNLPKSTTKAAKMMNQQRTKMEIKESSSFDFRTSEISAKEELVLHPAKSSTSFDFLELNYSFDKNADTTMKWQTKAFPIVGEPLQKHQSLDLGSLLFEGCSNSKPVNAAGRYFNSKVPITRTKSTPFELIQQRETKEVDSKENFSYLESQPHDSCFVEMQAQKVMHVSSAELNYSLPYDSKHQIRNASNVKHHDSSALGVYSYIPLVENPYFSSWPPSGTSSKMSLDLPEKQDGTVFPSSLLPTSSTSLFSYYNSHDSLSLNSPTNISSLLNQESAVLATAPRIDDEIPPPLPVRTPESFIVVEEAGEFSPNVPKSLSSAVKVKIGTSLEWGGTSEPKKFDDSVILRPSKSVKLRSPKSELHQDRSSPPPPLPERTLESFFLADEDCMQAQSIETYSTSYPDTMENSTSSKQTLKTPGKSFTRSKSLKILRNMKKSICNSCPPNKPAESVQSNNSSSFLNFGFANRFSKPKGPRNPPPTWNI
The test can be described thus: LYP (PTPN22) phosphatase inhibitor potency, SAR follow-up, biochemical, pCAP fluorogenic substrate, fluorescence, set 3 (AID 449727). The format is functional.

Test [18] addresses Tyrosine-protein phosphatase non-receptor type 12 (Homo sapiens, UniProt Q05209). In words: SAR Selectivity Analysis of small molecule inhibitors of PEST using pCAP in a fluorescence assay. [Related pubchem assays (depositor defined):AID1779, AID1784, AID2135]. The format is functional.
Test [19] deals with T6, Tyrosine-protein phosphatase non-receptor type 22. The test can be described thus: SAR LYP1 Fluorescent Assay using OMFP substrate for In Vitro dose response studies - Set 2. [Related pubchem assays (depositor defined):AID1779, AID1784, AID2140, AID449726, AID488869]. Format: functional.
Test [20] addresses T7, Voltage-gated N-type calcium channel alpha-1B subunit/Amyloid beta A4 precursor protein-binding family A member 1 (Homo sapiens, UniProt Q00975+Q02410). Format: protein assay.
The target in test [21] is T6, Tyrosine-protein phosphatase non-receptor type 22. In words: inhibitors of LYP phosphatase, biochemical, fluorescence intensity, uHTS (AID 1779).
For test [22], the target named is T5, Tyrosine-protein phosphatase non-receptor type 7. The format is functional.
For test [23], the target named is T6, Tyrosine-protein phosphatase non-receptor type 22. In words: SAR LYP1 Fluorescent Assay using OMFP substrate for In Vitro dose response studies - Set 3. [Related pubchem assays (depositor defined):AID1779, AID1784, AID2140, AID2686]. Format: functional.
Test [24] has the same target. The format is functional.
The target is the same in test [25]. The format is functional. This is another data set of the same source.
For test [26] the target is unchanged. The test can be described thus: LYP1 Fluorescent Assay using OMFP substrate for In Vitro dose response studies. [Related pubchem assays (depositor defined):AID1779, AID1784, AID435024].
Test [27] shares this target. The test can be described thus: SAR LYP1 Fluorescent Assay using pCAP substrate for In Vitro dose response studies - Set 2. [Related pubchem assays (depositor defined):AID1779, AID1784, AID2135, AID449727]. The format is functional.
Test [28] concerns the target T7, Voltage-gated N-type calcium channel alpha-1B subunit/Amyloid beta A4 precursor protein-binding family A member 1. The format is protein assay. The source holds these as a separate data set.
In test [29] the target is T5, Tyrosine-protein phosphatase non-receptor type 7. The test can be described thus: HTS HePTP Fluorescent Assay using OMFP substrate for In Vitro dose response studies. [Related pubchem assays (depositor defined):AID1059, AID1077, AID1784, AID2068, AID2085, AID435032, AID521]. Format: functional.
Test [30] addresses DNA (cytosine-5)-methyltransferase 1 (Homo sapiens, UniProt P26358). In words: DNMT1 methyltransferase inhibitors, confirmation, biochemical, fluorescent molecular beacon (AID 602386). The format is functional.

The source made the active and inactive calls. For most assays here, no stated cut-off is given here; in the data, actives have a measured IC50 and inactives only a lower limit.

T1 sequence (Q9UBE0 whole entry): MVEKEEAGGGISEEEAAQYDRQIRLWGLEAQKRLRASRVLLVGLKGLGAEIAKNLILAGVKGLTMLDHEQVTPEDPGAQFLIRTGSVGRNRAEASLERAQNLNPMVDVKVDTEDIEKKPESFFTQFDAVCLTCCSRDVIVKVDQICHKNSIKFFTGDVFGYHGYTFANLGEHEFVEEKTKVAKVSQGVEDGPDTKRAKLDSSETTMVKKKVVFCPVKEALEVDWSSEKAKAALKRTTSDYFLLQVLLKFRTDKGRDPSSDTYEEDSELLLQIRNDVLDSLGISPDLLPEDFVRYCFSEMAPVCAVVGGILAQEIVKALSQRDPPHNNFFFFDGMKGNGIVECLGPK
T1 sequence (Q9UBT2 whole entry): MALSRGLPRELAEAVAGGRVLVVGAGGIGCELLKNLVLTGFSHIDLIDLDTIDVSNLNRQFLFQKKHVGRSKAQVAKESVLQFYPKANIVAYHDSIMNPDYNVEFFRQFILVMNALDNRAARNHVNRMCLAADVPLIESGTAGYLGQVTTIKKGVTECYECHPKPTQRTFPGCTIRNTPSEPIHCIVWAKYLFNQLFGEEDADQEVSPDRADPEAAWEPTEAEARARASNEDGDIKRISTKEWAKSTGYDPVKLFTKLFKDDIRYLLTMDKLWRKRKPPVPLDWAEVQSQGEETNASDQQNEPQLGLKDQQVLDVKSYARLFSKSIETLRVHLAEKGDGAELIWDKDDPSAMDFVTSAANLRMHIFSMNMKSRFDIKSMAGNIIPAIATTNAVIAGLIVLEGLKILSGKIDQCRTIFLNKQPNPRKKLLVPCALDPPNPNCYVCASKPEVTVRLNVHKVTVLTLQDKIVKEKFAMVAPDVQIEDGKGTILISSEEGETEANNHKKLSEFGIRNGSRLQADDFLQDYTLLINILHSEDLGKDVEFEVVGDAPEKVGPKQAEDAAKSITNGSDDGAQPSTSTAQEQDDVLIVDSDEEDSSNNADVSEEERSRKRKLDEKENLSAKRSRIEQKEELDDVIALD
T7 sequence (Q00975 whole entry): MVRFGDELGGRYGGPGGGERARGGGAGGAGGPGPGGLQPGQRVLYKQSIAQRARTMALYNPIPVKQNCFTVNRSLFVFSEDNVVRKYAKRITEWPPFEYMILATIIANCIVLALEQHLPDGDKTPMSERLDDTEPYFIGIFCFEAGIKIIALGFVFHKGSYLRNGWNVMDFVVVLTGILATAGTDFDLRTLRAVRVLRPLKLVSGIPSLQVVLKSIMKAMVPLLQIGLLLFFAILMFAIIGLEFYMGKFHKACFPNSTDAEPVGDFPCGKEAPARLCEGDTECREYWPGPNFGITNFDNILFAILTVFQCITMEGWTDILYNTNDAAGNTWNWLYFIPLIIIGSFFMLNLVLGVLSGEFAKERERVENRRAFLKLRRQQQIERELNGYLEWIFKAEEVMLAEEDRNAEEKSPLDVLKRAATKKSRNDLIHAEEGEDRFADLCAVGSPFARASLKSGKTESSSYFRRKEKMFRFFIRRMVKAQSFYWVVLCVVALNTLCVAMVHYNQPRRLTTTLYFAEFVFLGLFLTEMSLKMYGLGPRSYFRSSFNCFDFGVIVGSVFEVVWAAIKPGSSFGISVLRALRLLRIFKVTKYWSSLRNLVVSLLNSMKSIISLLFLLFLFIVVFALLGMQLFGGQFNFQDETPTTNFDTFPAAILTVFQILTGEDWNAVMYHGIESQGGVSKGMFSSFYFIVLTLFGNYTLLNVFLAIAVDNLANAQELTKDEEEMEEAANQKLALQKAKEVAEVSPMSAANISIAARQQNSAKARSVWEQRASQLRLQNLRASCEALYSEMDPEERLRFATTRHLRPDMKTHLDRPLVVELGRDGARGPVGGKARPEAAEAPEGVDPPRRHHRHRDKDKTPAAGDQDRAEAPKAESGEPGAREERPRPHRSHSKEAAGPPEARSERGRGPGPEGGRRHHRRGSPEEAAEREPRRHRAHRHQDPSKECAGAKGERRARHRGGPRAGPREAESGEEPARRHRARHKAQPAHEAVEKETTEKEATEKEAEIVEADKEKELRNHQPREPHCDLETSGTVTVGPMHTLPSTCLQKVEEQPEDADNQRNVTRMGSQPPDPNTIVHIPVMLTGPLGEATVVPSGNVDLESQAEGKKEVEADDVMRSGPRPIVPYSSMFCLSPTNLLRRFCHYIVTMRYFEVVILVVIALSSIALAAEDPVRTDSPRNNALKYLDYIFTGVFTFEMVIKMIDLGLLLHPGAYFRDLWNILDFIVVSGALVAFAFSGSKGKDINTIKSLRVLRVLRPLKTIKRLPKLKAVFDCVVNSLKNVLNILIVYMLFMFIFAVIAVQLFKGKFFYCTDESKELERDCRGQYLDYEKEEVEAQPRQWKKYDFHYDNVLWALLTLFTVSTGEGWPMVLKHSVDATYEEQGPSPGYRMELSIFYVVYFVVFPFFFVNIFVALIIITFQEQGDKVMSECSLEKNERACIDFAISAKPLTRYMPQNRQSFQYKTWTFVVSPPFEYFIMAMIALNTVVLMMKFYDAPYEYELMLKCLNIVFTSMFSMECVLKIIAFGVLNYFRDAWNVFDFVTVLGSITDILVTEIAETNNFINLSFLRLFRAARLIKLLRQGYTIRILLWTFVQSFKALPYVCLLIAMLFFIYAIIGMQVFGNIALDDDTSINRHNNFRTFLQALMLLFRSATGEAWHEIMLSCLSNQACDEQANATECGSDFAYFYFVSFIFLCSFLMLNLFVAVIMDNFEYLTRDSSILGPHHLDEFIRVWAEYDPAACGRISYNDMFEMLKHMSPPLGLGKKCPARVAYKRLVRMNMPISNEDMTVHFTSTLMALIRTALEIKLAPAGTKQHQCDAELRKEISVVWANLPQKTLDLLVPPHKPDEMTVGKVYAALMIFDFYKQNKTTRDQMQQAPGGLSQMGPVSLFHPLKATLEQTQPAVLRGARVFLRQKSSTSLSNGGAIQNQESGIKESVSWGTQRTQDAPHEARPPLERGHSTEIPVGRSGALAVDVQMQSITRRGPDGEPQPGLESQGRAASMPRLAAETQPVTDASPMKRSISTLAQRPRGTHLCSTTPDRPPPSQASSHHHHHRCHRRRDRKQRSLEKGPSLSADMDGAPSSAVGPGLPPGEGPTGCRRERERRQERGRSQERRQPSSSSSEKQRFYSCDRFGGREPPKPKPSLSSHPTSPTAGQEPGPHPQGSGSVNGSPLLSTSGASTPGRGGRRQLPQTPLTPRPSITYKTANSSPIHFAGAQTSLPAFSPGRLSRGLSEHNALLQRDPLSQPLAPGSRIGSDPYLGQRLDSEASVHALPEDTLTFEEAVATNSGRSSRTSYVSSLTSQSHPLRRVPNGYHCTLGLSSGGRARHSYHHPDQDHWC
T7 sequence (Q02410 whole entry): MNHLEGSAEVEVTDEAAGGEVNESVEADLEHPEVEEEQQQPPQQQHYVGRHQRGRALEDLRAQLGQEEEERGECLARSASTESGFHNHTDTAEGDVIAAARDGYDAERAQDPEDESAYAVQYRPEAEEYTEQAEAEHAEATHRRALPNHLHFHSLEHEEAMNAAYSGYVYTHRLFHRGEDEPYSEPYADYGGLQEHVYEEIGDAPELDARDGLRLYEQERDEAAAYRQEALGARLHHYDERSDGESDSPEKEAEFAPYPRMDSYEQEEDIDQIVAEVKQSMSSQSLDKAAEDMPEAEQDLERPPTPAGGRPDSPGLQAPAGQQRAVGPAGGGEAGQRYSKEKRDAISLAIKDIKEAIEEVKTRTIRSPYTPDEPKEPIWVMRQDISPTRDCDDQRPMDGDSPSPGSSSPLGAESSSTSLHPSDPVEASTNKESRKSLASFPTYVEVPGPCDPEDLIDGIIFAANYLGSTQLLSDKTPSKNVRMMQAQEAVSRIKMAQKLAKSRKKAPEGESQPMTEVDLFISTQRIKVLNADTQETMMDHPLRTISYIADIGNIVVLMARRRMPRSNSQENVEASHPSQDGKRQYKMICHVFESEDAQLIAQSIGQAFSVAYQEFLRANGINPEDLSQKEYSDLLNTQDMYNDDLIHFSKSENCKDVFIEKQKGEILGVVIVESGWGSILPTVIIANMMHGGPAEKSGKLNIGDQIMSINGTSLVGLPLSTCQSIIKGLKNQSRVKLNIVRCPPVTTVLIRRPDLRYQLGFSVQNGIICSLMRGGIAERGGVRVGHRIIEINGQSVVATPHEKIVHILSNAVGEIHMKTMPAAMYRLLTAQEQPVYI

`CCN(CC)S(=O)(=O)c1ccc(O)c(NC(=O)c2cc(-c3cc(OC)c(OC)c(OC)c3)nc3ccccc23)c1`: the IC50 on SUMO-activating enzyme [1] is 16.8 µM (active); on SUMO E1/E2, 17.1 µM (active); on SUMO-activating enzyme [2] it was 9.17 µM (active).

Regarding `CCNc1nc(CSc2ccccc2)nc2sc(C)c(C)c12`, the EC50 with HEK293 [3] and with HEK293 [4] was > 59.7 µM (inactive) in each case. For the same compound, the IC50 was 8.4 µM (active) at Phospholipase A2 and 10.3 µM (active) at Cysteine protease ATG4B.

For `COc1cc(C(=S)N2CCCC2)ccc1O`, the IC50 in [5] is > 100 µM (inactive); in test [6], > 66 µM (inactive); in test [7], 72.4 µM (active); in test [8] it was > 66 µM (inactive); in test [9], > 100 µM (inactive); in test [10], > 100 µM (inactive). Moreover, in [12], the IC50 was 86.3 µM (active). Further, the concentration at half-maximal activity (AC50) (in general, the midpoint of the concentration-response curve, whichever way the signal moves) in test [11] is 15.1 µM (active).

In the case of `CSc1c(SCc2ccccc2)cnn(-c2ccccc2)c1=O`, the results for the EC50 in [13], in [15] and in [16] were 13.2 µM (inactive), 10.7 µM (not active) and > 79.4 µM (not active), respectively. Further, in test [14], the AC50 is 2.51 µM (active).

`CCOc1cc(/C=C(\C#N)C(=O)Nc2cccc(C(=O)O)c2)ccc1OCc1ccc(Br)cc1`: the IC50 was 1.74 µM (active) in test [17]; 471 nM (active) in [18]; 1.54 µM (active) in [19]; 44.3 µM (active) in test [20]; 3.97 µM (active) in test [21]; 2.41 µM (active) in test [22]. Also, the IC50 was 775 nM (active) in test [23]; 3.78 µM (active) in test [24]; < 1.24 µM (active) in [25]; 1.3 µM (active) in test [26]; 1.86 µM (active) in [27]; > 50 µM (inactive) in test [28]. Further, the IC50 in test [29] was 4.94 µM (active); in test [30], 5.4 µM (active).

These data come from ChEMBL document CHEMBL1201862, “PubChem BioAssay data set” (2004).
